Data taken from patent US20210214375A1 (LUNDBECK LA JOLLA RESEARCH CENTER, INC., priority 2017, published 2021).
Where two headings read alike, the source gives them in different places.

Columns and labels:
[1] = target: T1, ABHD6 (Mus musculus, UniProt Q8R2Y0); experiment: In vitro competitive activity-based protein profiling, mouse brain proteome, ABHD6; assay type: biochemical; conditions: mouse
T1 construct: Brain; from tissue; host or cells: mouse brain proteome
T1 sequence (Q8R2Y0 1-336): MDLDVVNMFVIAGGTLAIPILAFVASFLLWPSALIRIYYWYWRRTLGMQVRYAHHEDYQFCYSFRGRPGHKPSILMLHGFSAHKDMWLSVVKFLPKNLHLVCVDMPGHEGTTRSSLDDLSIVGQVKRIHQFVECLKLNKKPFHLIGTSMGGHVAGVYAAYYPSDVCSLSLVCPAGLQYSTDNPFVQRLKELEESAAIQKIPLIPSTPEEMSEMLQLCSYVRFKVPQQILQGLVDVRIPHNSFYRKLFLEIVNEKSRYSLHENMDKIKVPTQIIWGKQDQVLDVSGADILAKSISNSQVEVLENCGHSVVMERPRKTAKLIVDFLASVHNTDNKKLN
Protocol: [Worded in the source for another target; this target is reported under the same test.] (§1) Proteomes (human prefrontal cortex or cell membrane fractions) (50 μL, 1.0 mg/mL total protein concentration) were preincubated with varying concentrations of inhibitors at 37° C. After 30 min, FP—Rh or HT-01 (1.0 μL, 50 μM in DMSO) was added and the mixture was incubated for another 30 min at room temperature. Reactions were quenched with SDS loading buffer (15 μL-4×) and run on SDS-PAGE.

[2] = target: T2, MGLL (Mus musculus, UniProt O35678); experiment: In vitro competitive activity-based protein profiling, mouse brain proteome; assay type: biochemical
T2 construct: Brain; from tissue; host or cells: mouse brain proteome
T2 sequence (O35678 1-303): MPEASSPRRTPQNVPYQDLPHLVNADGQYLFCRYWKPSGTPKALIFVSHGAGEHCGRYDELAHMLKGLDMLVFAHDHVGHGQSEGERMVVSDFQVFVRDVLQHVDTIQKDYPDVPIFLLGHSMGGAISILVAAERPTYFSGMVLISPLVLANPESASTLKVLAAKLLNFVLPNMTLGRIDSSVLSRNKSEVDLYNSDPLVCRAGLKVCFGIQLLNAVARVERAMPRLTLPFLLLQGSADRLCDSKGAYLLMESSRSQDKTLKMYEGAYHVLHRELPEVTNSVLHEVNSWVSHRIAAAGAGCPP
Protocol: [Worded in the source for another species; this species is reported under the same test.] as §1

[3] = target: T3, MAGL (Mus musculus, UniProt O35678); experiment: Mouse brain proteomes from inhibitor treated mice (oral gavage, brain proteomes analyzed 4 h after administration); assay type: in vivo, mouse (C57Bl/6J); conditions: brain proteome 4 h after administration, read-out: % Inh 5 mg/kg MGLL (Mouse)
T3 construct: from tissue; host or cells: brain of wild-type C57Bl/6J mice
T3 sequence (O35678 1-303): T2 sequence (O35678 1-303)
In short: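 Wild-type C57Bl/6J mice dosed orally in polyethylene glycol vehicle; brains removed 4 h post-dose and brain proteomes prepared and analysed for MAGL and serine hydrolase activity by previously established methods.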

[4] = target: T4, MAGL (Homo sapiens, UniProt Q99685); experiment: In vitro competitive activity-based protein profiling (gel-based, FP-Rh or HT-01 probe); assay type: biochemical
T4 construct: Proteomes (human prefrontal cortex or cell membrane fractions); from tissue
T4 sequence (Q99685 1-303): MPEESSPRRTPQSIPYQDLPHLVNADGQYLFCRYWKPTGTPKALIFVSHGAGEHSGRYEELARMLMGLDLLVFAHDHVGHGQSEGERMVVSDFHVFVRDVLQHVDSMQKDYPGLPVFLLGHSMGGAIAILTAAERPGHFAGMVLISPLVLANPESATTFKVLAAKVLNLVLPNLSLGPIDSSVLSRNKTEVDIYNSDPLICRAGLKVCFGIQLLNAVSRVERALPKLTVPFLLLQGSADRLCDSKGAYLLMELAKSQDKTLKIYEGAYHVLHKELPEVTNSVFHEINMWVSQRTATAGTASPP
In short: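 Human prefrontal cortex or cell membrane proteomes (1.0 mg/mL protein) preincubated with varying inhibitor concentrations 30 min at 37° C. FP-Rh or HT-01 probe (1.0 μL of 50 μM stock) then added for 30 min at room temperature; reactions quenched with SDS loading buffer and resolved by SDS-PAGE.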

[5] = PC3 proteome, read-out: IC50 MGLL PC3 (Human)
[6] = PFC (prefrontal cortex) proteome, read-out: IC50 MGLL PFC (Human)

Row | Structure (SMILES) | IC50 [1] | IC50 [2] | inhibition at 5 mg/kg [3] | IC50 [4, 5] | % Inh MGLL PFC (Human, μM) ([4]; PFC (prefrontal cortex) proteome) | IC50 [4, 6]
1 | O=C(O)CN1CCN(c2cc(C(F)(F)F)ccc2CN2CCCC23CCN(C(=O)OC(C(F)(F)F)C(F)(F)F)CC3)CC1 [Example 3, 2-(4-(2-((8-(((1,1,1,3,3,3-Hexafluoropropan-2-yl)oxy)carbonyl)-1,8-diazaspiro[4.5]decan-1-yl)methyl)-5-(trifluoromethyl)phenyl)piperazin-1-yl)acetic acid] | > 1000 nM | < 100 nM | ≤ 25% | < 100 nM | ### (### is ≥ 75%) | < 100 nM
2 | O=C(OC(C(F)(F)F)C(F)(F)F)N1CCC2(CCCN2Cc2cc(C(F)(F)F)cc(C3(C(=O)O)CCCC3)c2)CC1 [Example 8, 1-(3-((8-(((1,1,1,3,3,3-Hexafluoropropan-2-yl)oxy)carbonyl)-1,8-diazaspiro[4.5]decan-1-yl)methyl)-5-(trifluoromethyl)phenyl)cyclopentane-1-carboxylic acid] | > 1000 nM | < 100 nM | ≥ 75% | < 100 nM |  | < 100 nM
3 | O=C(O)C1CN(c2cc(C(F)(F)F)ccc2CN2CC3(CCN(C(=O)OC(C(F)(F)F)C(F)(F)F)CC3)C2)CCO1 (stereo not shown) [Example 20, 4-(2-((7-(((1,1,1,3,3,3-Hexafluoropropan-2-yl)oxy)carbonyl)-2,7-diazaspiro[3.5]nonan-2-yl)methyl)-5-(trifluoromethyl)phenyl)morpholine-2-carboxylic acid] | > 1000 nM | < 100 nM | ≥ 75% | < 100 nM |  | < 100 nM
4 | O=C(O)C1CCN(c2cc(CN3CC4(CCN(C(=O)OC(C(F)(F)F)C(F)(F)F)CC4)C3)cc(C(F)(F)F)c2)CC1 [Example 99, 1-(3-((7-(((1,1,1,3,3,3-Hexafluoropropan-2-yl)oxy)carbonyl)-2,7-diazaspiro[3.5]nonan-2-yl)methyl)-5-(trifluoromethyl)phenyl)piperidine-4-carboxylic acid] | 100 to 1000 nM | < 100 nM | 25 to 75% | < 100 nM |  | < 100 nM
5 | CN(Cc1ccc(C(F)(F)F)cc1N1CCOC(C(=O)O)C1)C1(C)CCN(C(=O)OC(C(F)(F)F)C(F)(F)F)CC1 (stereo not shown) [Example 108, 4-(2-(((1-(((1,1,1,3,3,3-Hexafluoropropan-2-yl)oxy)carbonyl)-4-methylpiperidin-4-yl)(methyl)amino)methyl)-5-(trifluoromethyl)phenyl)morpholine-2-carboxylic acid] | 100 to 1000 nM | < 100 nM | ≤ 25% | < 100 nM |  | 
6 | CC(=O)N1CC2(CCN(c3ccccc3CN3CCN(C(=O)OC(C(F)(F)F)C(F)(F)F)CC3)C2)C1 [Example 168, 1,1,1,3,3,3-Hexafluoropropan-2-yl 4-(2-(2-acetyl-2,6-diazaspiro[3.4]oetan-6-yl)benzyl)piperazine-1-carboxylate] | > 1000 nM | < 100 nM | ≥ 75% | < 100 nM |  | 
7 | CS(=O)(=O)N1CCC2(CCN(c3cc(Cl)ccc3CN3CCN(C(=O)OC(C(F)(F)F)C(F)(F)F)CC3)CC2)C1 [Example 174, 1,1,1,3,3,3-Hexafluoropropan-4-(4-chloro-2-(2-(methylsulfonyl)-2,8-diazaspiro[4.5]decan-8-yl)benzyl)piperazine-1-carboxylate] | > 1000 nM | < 100 nM | ≥ 75% | < 100 nM |  | 
8 | CC(=O)N1CC2(CCN(c3cc(C(F)(F)F)ccc3CN3CCN(C(=O)OC(C(F)(F)F)C(F)(F)F)CC3)C2)C1 [Example 180, 1,1,1,3,3,3-Hexafluoropropan-2-yl 4-(2-(2-acetyl-2,6-diazaspiro[3.4]octan-6-yl)-4-(trifluoromethyl)benzyl)piperazine-1-carboxylate] | > 1000 nM | < 100 nM | ≥ 75% | < 100 nM |  | 
9 | CCN1CCC2(CCN(c3cc(C(F)(F)F)ccc3CN3CCN(C(=O)OC(C(F)(F)F)C(F)(F)F)CC3)CC2)C1 [Example 183, 1,1,1,3,3,3-Hexafluoropropan-2-yl 4-(2-(2-ethyl-2,8-diazaspiro[4.5]decan-8-yl)-4-(trifluoromethyl)benzyl)piperazine-1-carboxylate] | > 1000 nM | < 100 nM | ≤ 25% | < 100 nM |  | 
10 | CS(=O)(=O)N1CCC2(CCN(c3cc(C(F)(F)F)ccc3CN3CCN(C(=O)OC(C(F)(F)F)C(F)(F)F)CC3)CC2)C1 [Example 185, 1,1,1,3,3,3-Hexafluoropropan-2-yl 4-(2-(2-(methylsulfonyl)-2,8-diazaspiro[4.5]decan-8-yl)-4-- (trifluoromethyl)benzyl)piperazine-1-carboxylate] | > 1000 nM | < 100 nM | ≥ 75% | < 100 nM |  | < 100 nM
11 | CS(=O)(=O)N1CC2(CCN(c3cc(C(F)(F)F)ccc3CN3CCN(C(=O)OC(C(F)(F)F)C(F)(F)F)CC3)C2)C1 [Example 186, 1,1,1,3,3,3-Hexafluoropropan-2-yl 4-(2-(2-(methylsulfonyl)-2,6-diazaspiro[3.4]octan-6-yl)-4-(trifluoromethyl)benzyl)piperazine-1-carboxylate] | > 1000 nM | < 100 nM | ≥ 75% | < 100 nM |  | 
12 | CC(=O)N1CCC2(CCN(c3cc(C(F)(F)F)ccc3CN3CCN(C(=O)OC(C(F)(F)F)C(F)(F)F)CC3)CC2)C1 [Example 189, 1,1,1,3,3,3-Hexafluoropropan-2-yl 4-(2-(2-acetyl-2,8-diazaspiro[4.5]decan-8-yl)-4-(trifluoromethyl)benzyl)piperazine-1-carboxylate] | > 1000 nM | < 100 nM | ≥ 75% | < 100 nM |  | 
13 | CS(=O)(=O)N1CC2(CCN(c3cc(Cl)ccc3CN3CCN(C(=O)OC(C(F)(F)F)C(F)(F)F)CC3)CC2)C1 [Example 212, 1,1,1,3,3,3-Hexafluoropropan-2-yl 4-(4-chloro-2-(2-(methylsulfonyl)-2,7-diazaspiro[3.5]nonan-7-yl)benzyl)piperazine-1-carboxylate] | > 1000 nM | < 100 nM | ≥ 75% |  |  | 
14 | CC(=O)N1CC2(CCN(c3cc(Cl)ccc3CN3CCN(C(=O)OC(C(F)(F)F)C(F)(F)F)CC3)CC2)C1 [Example 213, 1,1,1,3,3,3-Hexafluoropropan-2-yl 4-(2-(2-acetyl-2,7-diazaspiro[3.5]nonan-7-yl)-4-chlorobenzyl) piperazine-1-carboxylate] | > 1000 nM | < 100 nM | ≥ 75% |  |  | 
15 | CC(=O)N1CC2(CCN(c3cc(C(F)(F)F)ccc3CN3CCN(C(=O)OC(C(F)(F)F)C(F)(F)F)CC3)CC2)C1 [Example 216, 1,1,1,3,3,3-Hexafluoropropan-2-yl 4-(2-(2-acetyl-2,7-diazaspiro[3.5]nonan-7-yl)-4-(trifluoromethyl)benzyl)piperazine-1-carboxylate] | > 1000 nM | < 100 nM | ≥ 75% | < 100 nM |  | 
16 | CS(=O)(=O)N1CCC2(CCN(c3cc(CN4CCCC45CN(C(=O)OC(C(F)(F)F)C(F)(F)F)C5)cc(C(F)(F)F)c3)CC2)C1 [Example 233, 1,1,1,3,3,3-Hexafluoropropan-2-yl 5-(3-(2-(methylsulfonyl)-2,8-diazaspiro[4.5]decan-8-yl)-5-(trifluoromethyl)benzyl)-2,5-diazaspiro[3.4]octane-2-carboxylate] | > 1000 nM | < 100 nM | ≤ 25% |  |  | 
